From PubChem BioAssay AID2305 (GlaxoSmithKline (GSK), 2010)
Values joined by “and” are separate entries in the source; they are usually repeats but may differ in a detail not shown here. Identical values can stand only once.

What follows are molecules tested on P. falciparum 3D7 growth, pLDH absorbance (assay: P. falciparum 3D7 growth inhibition, dose response, strain 3D7 (AID 2305)).
`O=C(Nc1ccc(-c2cccc(-c3nc4ccc(C(F)(F)F)cc4[nH]3)c2)cc1)Nc1ccc(Cl)c(Cl)c1` gave an IC50 of 750 nM.
Molecule `Oc1c(CNC2CCCCC2)cc(Cl)c2ccccc12` has an IC50 of 840 nM.
With `CCc1ccc(S(=O)(=O)Nc2cccc(CCN3CCC(N4CCCCC4)CC3)c2)cc1` the IC50 was 900 nM.
With `CNC(=O)c1ccc2[nH]cc(C3CCN(CC4CCN(C(=O)/C=C/c5ccc(Cl)c(Cl)c5)CC4)CC3)c2c1` the IC50 was 1520 nM.
Molecule `Cc1cc(O)c(-c2cc(C(=O)Nc3cccnc3)[nH]n2)cc1C` has an IC50 of 770 nM.
`Cc1cc(N(C)C2CCN(CC3CCCCC3)C2)nc(Nc2ccc(Cl)cc2)n1` (centres undefined) gave an IC50 of 680 nM.
For `COc1ccccc1CNC(=O)c1nn(-c2ccc(Cl)cc2)c(=O)c2ccccc12`, the IC50 was 290 nM.
`O=C1C(=Cc2cc(Cc3ccccc3)ccc2O)SC(=S)N1Cc1ccccc1` gave an IC50 of 940 nM.
For `CCOc1ncccc1CN1CCC(N2CCc3cc(NC(=O)c4cc(C)on4)ccc32)C1` (centres undefined), the IC50 was 310 nM.
Molecule `CN1C(=O)[C@H](NC(=O)[C@@H](Cc2ccccc2)NC(=S)Nc2ccccc2)N=C(c2ccccc2)c2ccccc21` has an IC50 of 860 nM.
In the case of `CCCN(CCC)CCCNc1ccc(C(=O)Nc2ccc(C)c(F)c2)cc1[N+](=O)[O-]`, the IC50 is reported as 540 nM.
`CO/C(=C\C=C\c1cc2cc(Cl)c(Cl)cc2[nH]1)C(=O)NCCCN1CCN(Cc2ccccc2)CC1` was tested, and the IC50 was 910 nM.
`OC(CNCc1ccccc1OCc1ccccc1)c1cccc(I)c1` (centres undefined) was tested, and the IC50 was 420 nM.
With `O=[N+]([O-])c1cccc(CNCC2CCN(CC3CCCCC3)CC2)c1` the IC50 was 1290 nM.
Molecule `CC1CN(c2cc(=O)n(Cc3ccc(NC(=O)Nc4ccc(-c5ccccc5)cc4)cc3)cn2)CC(C)N1` (centres undefined) has an IC50 of 970 nM.
Molecule `CC(C)(CNC(=O)/C=C/c1ccc(Cl)c(Cl)c1)CNc1cc(=O)c2ccccc2[nH]1` has an IC50 of 860 nM.
`COc1ccccc1Nc1nc(C)cc(NCc2ccc(-c3c(C)noc3C)cc2)n1` gave an IC50 of 870 nM.
For `Cc1cc(NCCC(=O)NCc2cccc(F)c2)nc(Nc2ccccc2)n1`, the IC50 was 1050 nM.
`CCC(C)NCCC(c1ccccc1)c1ccccc1O` (centres undefined) showed an IC50 of 790 nM.
`COc1cc2nc(N3CCC(CNC(=O)c4ccc(-c5ccc(C#N)cc5)cc4)CC3)nc(N)c2cc1OC` gave an IC50 of 800 nM.
Work on `Nc1c2c(nc3ccc(NC(=O)c4ccccc4)cc13)CCCC2` yielded an IC50 of 610 nM.
Work on `c1ccc(C(OCCC2CCN(Cc3cccnc3)CC2)c2ccccc2)cc1` yielded an IC50 of 820 nM.
`CC(C)COc1ccc(Cl)cc1Cc1ccc(-c2nc3c(F)c(F)ccc3[nH]2)o1` showed an IC50 of 940 nM.
Molecule `CC(C)NCc1ccc(-c2cccc(-c3nc4ccc(C(F)(F)F)cc4[nH]3)c2)cc1` has an IC50 of 260 nM.
With `CCC(CC)n1c(COC)cc2c3c(N)nc(N)nc3ccc21` the IC50 was 10 nM.
Work on `O=C(Nc1ccc(-c2cncc(NCCCN3CCCC3)c2)cc1)c1ccccc1` yielded an IC50 of 940 nM.
Work on `O=C(NC(Nc1ccc([N+](=O)[O-])cc1)C(Cl)(Cl)Cl)c1cccc(Cl)c1` (centres undefined) yielded an IC50 of 860 nM.
`COc1ccc(NC(=O)[C@H](Cc2ccccc2)Nc2cc(C)nc(Nc3ccccc3)n2)cc1` was tested, and the IC50 was 1010 nM.
`CC(=O)Nc1cccc(C(=O)Nc2cccc(-c3ccc(-c4nc5ccc(F)cc5[nH]4)s3)c2)c1` showed an IC50 of 900 nM.
`Cc1cccc2[nH]c(-c3ccc(-c4cccc(CNCc5ccccc5)c4)cc3)nc12` was tested, and the IC50 was 250 nM.
With `Cc1cccc(CN2CCC(CNC(=O)c3cc4c(-c5ccccc5F)nn(C)c4s3)CC2)c1` the IC50 was 1090 nM.
`CC(C)(C)c1ccc(CN2CCC(NC(=O)c3ccc(-c4ccccc4F)s3)CC2)cc1` gave an IC50 of 1200 nM.
With `CN1[C@@H]2CC[C@H]1c1cc(NC(=O)c3cc(-c4ccc(Cl)cc4)cs3)ccc12` the IC50 was 1300 nM.
For `COc1ccc2nc(C)cc(NN=Cc3cccc([N+](=O)[O-])c3)c2c1`, the IC50 was 730 nM.
Molecule `Cc1nc2nc(N)nc(N)c2c(C)c1Cc1ccc([N+](=O)[O-])cc1` has an IC50 of 440 nM.
Molecule `O=S(=O)(NCCN1CCCC1)c1ccc(-c2ccc(CNCc3ccsc3)cc2)cc1F` has an IC50 of 810 nM.
For `CC(Cc1ccc(NC(=O)COc2ccc(CC(C)NCCc3cccc(Cl)c3)cc2)cc1)NCCc1cccc(Cl)c1` (centres undefined), the IC50 was 80 nM.
Work on `COc1ccc2ncc(F)c(CCN3CCC(NCc4cc5c(cn4)OCCS5)CC3)c2c1` yielded an IC50 of 780 nM.
`NC1=NC2(CCCCC2)N(OCCCCCCN2C(=O)c3ccccc3C2=O)C(N)=N1` showed an IC50 of 870 nM.
With `C=C[C@H]1CN2CC[C@H]1C[C@H]2[C@H](O)c1ccnc2ccc(OC)cc12` the IC50 was 100 nM and 430 nM and 150 nM.
In the case of `O=C(Cn1c(CCc2cccc(F)c2F)cc(=O)c2cccnc21)N(CCCn1ccnc1)Cc1ccc(-c2ccc(C(F)(F)F)cc2)cc1`, the IC50 is reported as 800 nM.
Work on `CC(C)NCc1cc(Nc2ccnc3cc(Cl)ccc23)ccc1O` yielded an IC50 of 20 nM.
`O=C(Nc1ccc(-c2nc3cc4ccccc4cc3[nH]2)cc1)c1cccc(Br)c1` was tested, and the IC50 was 360 nM.
For `CCCOc1ccc(CNCCCCCCNCc2ccc(OCCC)c3ccccc23)c2ccccc12`, the IC50 was 410 nM.
`O=C(Nc1ccc(F)c(Cl)c1)c1cc([N+](=O)[O-])cc2cn[nH]c12` showed an IC50 of 320 nM.
`O=C(/C=C/c1ccc(O)cc1)NC1CCC(CN2CCC(c3c[nH]c4ccccc34)CC2)CC1` (centres undefined) gave an IC50 of 740 nM.
With `c1ccc2cc3c(Nc4ccc(N5CCCCCC5)cc4)ccnc3cc2c1` the IC50 was 940 nM.
`Fc1cccc(Nc2nc(NCc3ccc4ccsc4c3)nc(Nc3cccc(F)c3)n2)c1` gave an IC50 of 1080 nM.
For `COc1ccc(C2c3cc(OC)c(OC)cc3C(=NO)C2C)cc1OC` (centres undefined), the IC50 was 1170 nM.
`O=C(Nc1cccc(OC2CCN(Cc3ccsc3)CC2)c1)c1ccc(C(F)(F)F)cc1` was tested, and the IC50 was 770 nM.
Molecule `CC(=O)Nc1ccc(CN2CCC(NC(=O)c3ccc(-c4cccc(OC(C)C)c4)s3)CC2)cc1` has an IC50 of 1460 nM.
`CCCCCN1CCC(NC(=O)c2ccc(C(=O)Nc3ccc(C(C)C)cc3)cc2)C1` (centres undefined) gave an IC50 of 950 nM.
`Cc1cccc(C)c1CNc1nc(N2CCOCC2)cc2c(C)c(C)[nH]c12` was tested, and the IC50 was 1240 nM.
`CC(=O)N1N=C(c2ccc(F)cc2)Sc2c1nc(C1CCCCC1)n2C(C)=O` gave an IC50 of 890 nM.
`COc1ccc(NC(=O)Nc2ccc(-c3ccncc3)c(C(F)(F)F)c2)cc1N1CCN(C)CC1` showed an IC50 of 760 nM.
`CC(C)N1CCC(NC(=O)N2CCCN(c3ncnc4cc(-c5ccc(Cl)cc5)sc34)CC2)CC1` was tested, and the IC50 was 1940 nM.
For `CN(C)CCN(Cc1ccccc1-c1ccc(CNCCc2ccccc2)cc1)C(=O)NC1CCCCC1`, the IC50 was 910 nM.
`CCOc1cc(C(=O)Nc2ccc(-c3nc4ccccc4[nH]3)cc2)cc(OCC)c1OCC` was tested, and the IC50 was 230 nM.
`Cc1c(-c2ccc(C(=O)NC3CC(C)(C)NC(C)(C)C3)cc2)[nH]c2cc(Cl)c(Cl)cc12` showed an IC50 of 750 nM.
Molecule `CCc1ccc(NC(=O)N(CCCN2CCN(C)CC2)Cc2csc(-c3ccc(CNCc4ccccc4)cc3)n2)cc1` has an IC50 of 1010 nM.
Work on `Clc1cc(Cl)c2c(c1)C(NCCCNc1nc3ccccc3[nH]1)CCO2` (centres undefined) yielded an IC50 of 330 nM.
`CCCc1ccc(Nc2nc(C)cc(N(CC)CCCN3CCCCC3)n2)cc1` gave an IC50 of 540 nM.
`CCN(CC)CCNC(=O)/C(=C/C=C/c1cc2cc(Cl)c(Cl)cc2[nH]1)OC` gave an IC50 of 930 nM.
With `COc1ccc(CN(C)Cc2ccc(NC(=O)c3cccc4c(=O)c5cccc(C)c5[nH]c34)cc2)cc1OC` the IC50 was 840 nM.
Work on `CSc1ccc(NC(=O)Nc2cc(C)nc3ccccc23)cc1` yielded an IC50 of 710 nM.
For `Cc1ccc(CN2CCCN(Cc3cccc(NC(=O)c4ccc(Cl)c(Cl)c4)c3)CC2)cc1`, the IC50 was 900 nM.
In the case of `CC[C@H]1CN(Cc2ccccc2Br)CC[C@H]1CCCc1ccnc2ccc(O)cc12`, the IC50 is reported as 1000 nM.
Molecule `N#Cc1cccc(C(=O)Nc2cccc(-c3ccc(CN4CCCC4)cc3)c2)c1` has an IC50 of 700 nM.
Work on `Cc1nc(C)n(CC(=O)Nc2cccc(-c3cccc(-c4nc5ccc(C(F)(F)F)cc5[nH]4)c3)c2)n1` yielded an IC50 of 760 nM.
Work on `O=c1cc(NCCCNC2CCc3c(Cl)cc(Cl)cc32)[nH]c2ccccc12` (centres undefined) yielded an IC50 of 930 nM.
Work on `O=C(c1ccc(Cl)cc1)N1CCCC(C(=O)N(Cc2nnc(-c3ccccc3Cl)o2)C2CC2)C1` (centres undefined) yielded an IC50 of 230 nM.
Work on `COc1ccc(CNC2CCN(C)CC2)cc1-c1ccc(S(=O)(=O)NCCc2ccccn2)c(C)c1` yielded an IC50 of 1150 nM.
For `O=C(NC1CCN(CCC(NC(=O)c2ccccc2)c2ccc(Cl)c(Cl)c2)CC1)c1ccc(Cl)cc1` (centres undefined), the IC50 was 1070 nM.
`CCCN(CCC)S(=O)(=O)c1ccc(C(=O)N2CCC(C(=O)OCC)CC2)cc1` was tested, and the IC50 was 800 nM.
`c1ccc2c(C3CCN(CCCCOc4ccc5c(c4)CCN(CC4CC4)CC5)CC3)c[nH]c2c1` was tested, and the IC50 was 980 nM.
Molecule `Cc1[nH]c(C)c(C2CCC(c3ccc(Cl)cc3)CC2)c(=O)c1Cl` (centres undefined) has an IC50 of 50 nM.
Work on `CCC(C)c1ccc(NC(=O)C(C)c2ccc([N+](=O)[O-])cc2)cc1` (centres undefined) yielded an IC50 of 180 nM.
In the case of `Cc1cc(C)cc(-n2c(C)cc(C=C3SC(=Nc4ccc(Cl)cc4)NC3=O)c2C)c1`, the IC50 is reported as 70 nM.
`COc1ccc2nccc(N3CCC(CCNCc4cc5c(cn4)OCCO5)CC3)c2n1` was tested, and the IC50 was 220 nM.
In the case of `Cc1cc(C)c(C(=O)Nc2ccc3nc(C)cc(N)c3c2)c(C)c1`, the IC50 is reported as 1090 nM.
`O=C(N[C@@H](Cc1ccccc1)C(=O)NC1CCCCC1)c1ccc(O)c(-c2ccc(Cl)c(Cl)c2)c1` was tested, and the IC50 was 230 nM.
`CC(C)COc1ccc(C(O)C(CN2CCCCC2)c2ccccc2)cc1` (centres undefined) showed an IC50 of 920 nM.
`CC(=O)N(C)c1cccc(C(=O)Nc2cccc(-c3cccc(-c4nc5ccc(C(F)(F)F)cc5[nH]4)c3)c2)c1` showed an IC50 of 240 nM.
For `COc1ccc(NC(=O)[C@H](CC(C)C)Nc2cc(C)nc(NCc3ccccc3C)n2)cc1`, the IC50 was 890 nM.
Work on `CN(CCC(O)c1ccc(Cl)c(Cl)c1)C[C@H]1C[C@@H]1C(=O)c1ccccc1` (some centres undefined) yielded an IC50 of 790 nM.
For `CN1CCN(CCCCCCNc2c3ccccc3nc3ccccc23)CC1`, the IC50 was 720 nM.
`Cc1[nH]c(C)c(-c2ccc(OCc3ccc(F)cc3)nc2)c(=O)c1Br` was tested, and the IC50 was 200 nM.
Molecule `CCN(C1CCCCC1)S(=O)(=O)c1ccc(OC)c(N2CCN(C(=O)C(Cl)(Cl)Cl)CC2)c1` has an IC50 of 630 nM.
`Cc1cc(N[C@@H](Cc2ccccc2)C(=O)NCc2cccs2)nc(NCCc2ccc(F)cc2)n1` was tested, and the IC50 was 850 nM.
Work on `COc1ccc(OC)c(CC2c3ccc(Br)c(O)c3CCN2C)c1` (centres undefined) yielded an IC50 of 750 nM.
Molecule `CCN(CCCN1CCCCC1)c1cc(C)nc(Nc2ccc(C)cc2)n1` has an IC50 of 410 nM.
With `CCC[C@@H]([C@@H](CC1CCCCC1)C(=O)N[C@H](C(=O)Nc1ccccn1)[C@H](C)CC)N(O)C=O` the IC50 was 530 nM.
Work on `COc1cc(C=NNc2ccnc3cc(Cl)ccc23)ccc1O` yielded an IC50 of 130 nM.
With `Cc1cccc2[nH]c(-c3ccc(-c4cccc(NC(=O)Nc5ccsc5)c4)cc3)nc12` the IC50 was 800 nM.
With `COc1ccc2nccc([C@@H](O)CN3CCC(NCc4ccc5cccc(O)c5n4)CC3)c2c1` the IC50 was 1130 nM.
Molecule `COc1ccc(NC(=O)/C=C/c2ccccc2Cl)cc1OCCN1CCC(NCc2cccnc2)CC1` has an IC50 of 760 nM.
For `CC1(C)N=C(N)N=C(N)N1c1ccc(Br)cc1`, the IC50 was 10 nM.
Molecule `CC(=O)Nc1ccc(C(=O)Nc2cccc(-c3ccc(-c4nc5ccccc5[nH]4)s3)c2)cn1` has an IC50 of 180 nM.
With `Cn1cc(C2CCN(CCCCCNC(=O)/C=C/c3ccc(Cl)c(Cl)c3)CC2)c2cc(O)ccc21` the IC50 was 940 nM.
